Test results reported in paper PMC9902548, “In silico and in vitro anti-inflammatory study of phenolic compounds isolated from Eucalyptus maculata resin” (Scientific Reports, 2023).

Assays:
NO = NO inhibition, ELISA kit; format: biochemical; settings: mean ± SD, average of three determinations
Method: (§1) The 50% inhibitory concentration (IC50) values were calculated from the concentration-inhibition response curve.
(§2) Cyclooxygenases (COX-1 and COX-2) were measured by an enzyme immunoassay (EIA) kit (Cayman Chemical, Ann Arbor, MI, USA) according to the manufacturer’s instructions. TNF-R2, NF-KB, and NO were measured by ELISA kit (#79756, BPS Bioscience, USA), (#CSB-EL015761HU, Cusabio, China).

TNF-R2 = biological target: T1, TNF-R2 (Homo sapiens, UniProt P20333); experiment: TNF-R2 binding activity, ELISA kit; settings: mean ± SD, average of three determinations
T1 construct: purchased BPS Bioscience 79756
T1 sequence (P20333 23-257 limits assumed): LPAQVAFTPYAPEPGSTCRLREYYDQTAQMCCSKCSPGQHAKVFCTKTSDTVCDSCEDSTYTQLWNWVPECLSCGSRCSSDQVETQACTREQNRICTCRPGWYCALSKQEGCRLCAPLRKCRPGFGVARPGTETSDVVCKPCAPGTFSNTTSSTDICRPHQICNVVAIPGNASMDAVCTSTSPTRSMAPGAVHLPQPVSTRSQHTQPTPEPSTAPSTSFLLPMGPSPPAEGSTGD

NF-KB = NF-KB inhibition, ELISA kit; format: biochemical; settings: for NF- KB IC50 ± SD: mean ± SD, average of three determinations
Method: as §1, §2

COX-1 = COX-1 (Ovis aries, UniProt P05979); design: method as in ref 15 (Zhang et al.); settings: ref 15 (Zhang et al.); cited from earlier work
Chain of COX-1 (P05979 25-600): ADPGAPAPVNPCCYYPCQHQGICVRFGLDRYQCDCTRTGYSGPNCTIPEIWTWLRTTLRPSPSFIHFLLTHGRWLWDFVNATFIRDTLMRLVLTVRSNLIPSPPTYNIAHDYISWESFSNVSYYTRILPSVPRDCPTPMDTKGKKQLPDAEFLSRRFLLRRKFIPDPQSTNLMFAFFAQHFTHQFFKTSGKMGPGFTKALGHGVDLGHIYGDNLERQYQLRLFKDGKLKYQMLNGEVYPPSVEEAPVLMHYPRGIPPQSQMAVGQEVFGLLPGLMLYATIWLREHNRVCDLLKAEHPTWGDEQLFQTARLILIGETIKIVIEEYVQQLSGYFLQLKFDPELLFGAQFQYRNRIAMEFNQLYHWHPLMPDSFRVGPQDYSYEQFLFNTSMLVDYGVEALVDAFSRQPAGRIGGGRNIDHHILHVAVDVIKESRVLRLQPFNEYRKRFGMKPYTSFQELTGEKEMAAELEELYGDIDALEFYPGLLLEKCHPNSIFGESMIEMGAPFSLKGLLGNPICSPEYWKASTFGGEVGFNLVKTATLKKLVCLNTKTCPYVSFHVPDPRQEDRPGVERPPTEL

COX-2 [1] = biological target: T2, COX-2 (Homo sapiens, UniProt P35354); design: purchased Cayman Chemical; method as in ref 15 (Zhang et.al 2006); settings: ref 15 (Zhang et.al 2006); cited from earlier work
T2 sequence (P35354 18-604): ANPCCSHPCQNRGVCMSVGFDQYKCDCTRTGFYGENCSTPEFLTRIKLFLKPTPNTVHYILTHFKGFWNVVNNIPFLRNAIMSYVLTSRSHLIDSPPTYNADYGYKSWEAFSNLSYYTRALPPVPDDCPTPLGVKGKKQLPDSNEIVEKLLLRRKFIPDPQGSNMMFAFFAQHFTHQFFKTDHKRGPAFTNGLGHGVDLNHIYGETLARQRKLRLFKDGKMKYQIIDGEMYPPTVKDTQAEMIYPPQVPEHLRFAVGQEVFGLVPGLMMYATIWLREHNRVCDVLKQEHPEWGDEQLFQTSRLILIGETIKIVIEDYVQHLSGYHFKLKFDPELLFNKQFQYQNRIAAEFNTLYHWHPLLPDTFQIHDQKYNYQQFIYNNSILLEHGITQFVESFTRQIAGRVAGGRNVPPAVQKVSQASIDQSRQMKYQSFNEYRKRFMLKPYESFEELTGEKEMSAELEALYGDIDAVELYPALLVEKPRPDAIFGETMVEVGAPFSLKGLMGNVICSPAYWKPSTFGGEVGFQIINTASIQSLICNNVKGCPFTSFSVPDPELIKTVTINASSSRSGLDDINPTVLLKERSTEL

COX-2 [2] = biological target: T2, COX-2; experiment: COX-2 inhibition, enzyme immunoassay (EIA) kit
Method: All enzyme inhibition activities were performed in triplicate and were examined using the sample t-test using the SPSS 26.0 program at (p < 0.05) (Table 1).

NO IC50 ± SD (NO) | IC50 (TNF-R2) | NF- KB IC50 ± SD (NF-KB) | COX-2 inhibitory activity (in words) (COX-2 [2]) | IC50 (COX-2 [2]) | Structure (SMILES) | Suppression of NF-KB (in words) (NF-KB) | Inhibitory effects on COX-1 (in words) (COX-1) | Inhibitory activity against COX-2 (in words) (COX-2 [1])
49.20 ± 0.80 µg/mL |  |  |  |  | O=[N+]([O-])c1cccc2cn[nH]c12 [7-nitroindazole, 7-nitroindazole, reference compound] |  |  | 
82.00 ± 1.06 µg/mL | 31 nM | 10.07 ± 0.09 pg/mL | moderate inhibitory activity | 11.3 µM | COc1cc(O)c2c(c1)O[C@H](c1ccc(O)cc1)CC2=O [Compound C1, (2S)-5,4'-dihydroxy-7-methoxyflavanone] | significantly moderate suppression | moderate inhibitory effects | no inhibitory activity
66.00 ± 0.69 µg/mL | 51.5 nM | 8.77 ± 0.07 pg/mL |  | 34.6 µM | O=C(O)/C=C/c1ccccc1 [Compound C2, (E)-cinnamic acid] | significantly moderate suppression |  | 
76.40 ± 1.74 µg/mL | 27.6 nM | 9.33 ± 0.03 pg/mL | moderate inhibitory activity | 8.44 µM | COc1cc(O)c2c(c1)O[C@H](c1ccc(O)cc1)[C@@H](O)C2=O [Compound C4, 7-O-methyl aromadendrin] | significantly moderate suppression | moderate inhibitory effects | no inhibitory activity
38.00 ± 0.04 µg/mL | 11.7 nM | 6.07 ± 0.07 pg/mL |  | 2.63 µM | O=C(C=Cc1ccccc1)OCC1OC(OC(=O)C=Cc2ccccc2)C(O)C(O)C1O [Compound C5, 1,6-dicinnamoyl-O-α-D-glucopyranoside] |  |  | 
 |  | 7.80 ± 0.03 pg/mL |  |  | COc1cc(/C=C/C(=O)CC(=O)/C=C/c2ccc(O)c(OC)c2)ccc1O [Curcumin, reference compound] |  |  | 
